# Test results as given in article PMC4303209, “A novel phosphatidylinositol 3-kinase (PI3K) inhibitor directs a potent FOXO-dependent, p53-independent cell cycle arrest phenotype characterized by the differential induction of a subset of FOXO-regulated genes” (Breast Cancer Research : BCR, 2014).
# Test system: MCF-7 breast cancer cells
# Test: Microarray gene expression analysis (Agilent whole human genome 4 x 44K; compound vs DMSO, LIMMA log2 fold change)
# Assay type: cell-based
# Conditions: Apoptosis genes
structure (smiles),measurement,setting,value
Cn1ncc2c(N3CCOCC3)nc(-c3cccc(O)c3)nc21 [ETP-45658],HSPD1 log2FC,Gene 3329,0.324
same,HSPE1 log2FC,Gene 3336,-0.110
same,HTR2B log2FC,Gene 3357,-0.636
same,IAPP log2FC,Gene 3375,-0.105
same,ID1 log2FC,Gene 3397,-0.206
same,ID3 log2FC,Gene 3399,-0.237
same,IFI16 log2FC,Gene 3428,0.357
same,IFI27 log2FC,Gene 3429,-0.362
same,IFIT2 log2FC,Gene 3433,1.724
same,IFIT3 log2FC,Gene 3437,0.389
same,IFNG log2FC,Gene 3458,-0.055
same,IGBP1 log2FC,Gene 3476,0.248
same,IGF1 log2FC,Gene 3479,0.046
same,IGF1R log2FC,Gene 3480,0.075
same,IGF2R log2FC,Gene 3482,0.109
same,IGFBP3 log2FC,Gene 3486,-0.114
same,IKBKB log2FC,Gene 3551,0.231
same,IL1B log2FC,Gene 3553,-0.057
same,IL1RN log2FC,Gene 3557,-0.173
same,IL2 log2FC,Gene 3558,-0.036
same,IL4 log2FC,Gene 3565,-0.060
same,IL6 log2FC,Gene 3569,0.421
same,IL6R log2FC,Gene 3570,0.499
same,IL6ST log2FC,Gene 3572,0.387
same,IL7 log2FC,Gene 3574,0.329
same,IL10 log2FC,Gene 3586,-0.054
same,TNFRSF9 log2FC,Gene 3604,-0.082
same,ING2 log2FC,Gene 3622,0.424
same,INHBA log2FC,Gene 3624,-0.426
same,INHBB log2FC,Gene 3625,-1.024
same,INS log2FC,Gene 3630,-0.159
same,INPP5D log2FC,Gene 3635,-0.052
same,INSL3 log2FC,Gene 3640,-0.299
same,IRAK1 log2FC,Gene 3654,-0.289
same,IRF1 log2FC,Gene 3659,-0.225
same,IRF3 log2FC,Gene 3661,-0.604
same,IRF5 log2FC,Gene 3663,1.125
same,IRF7 log2FC,Gene 3665,0.214
same,ITGA1 log2FC,Gene 3672,0.199
same,ITGA5 log2FC,Gene 3678,-0.764
same,ITGAV log2FC,Gene 3685,0.634
same,ITGB1 log2FC,Gene 3688,0.722
same,ITPR1 log2FC,Gene 3708,0.270
same,JAG2 log2FC,Gene 3714,0.300
same,JAK2 log2FC,Gene 3717,0.353
same,JAK3 log2FC,Gene 3718,-0.320
same,JUN log2FC,Gene 3725,-0.912
same,KCNMA1 log2FC,Gene 3778,0.256
same,KNG1 log2FC,Gene 3827,-0.104
same,KPNA1 log2FC,Gene 3836,-0.177
same,KPNB1 log2FC,Gene 3837,0.586
same,KRT8 log2FC,Gene 3856,-0.518
same,KRT18 log2FC,Gene 3875,-0.481
same,LCK log2FC,Gene 3932,-0.268
same,LEP log2FC,Gene 3952,-0.061
same,LGALS7 log2FC,Gene 3963,-0.300
same,LIG4 log2FC,Gene 3981,0.100
same,LMNA log2FC,Gene 4000,-0.311
same,LMNB1 log2FC,Gene 4001,-0.133
same,LRP6 log2FC,Gene 4040,-0.141
same,LTBR log2FC,Gene 4055,-0.240
same,LTK log2FC,Gene 4058,-0.048
same,LYN log2FC,Gene 4067,-0.239
same,SMAD3 log2FC,Gene 4088,0.254
same,SMAD6 log2FC,Gene 4091,-0.277
same,MAL log2FC,Gene 4118,-0.683
same,MAX log2FC,Gene 4149,-0.288
same,MCF2 log2FC,Gene 4168,0.044
same,MCL1 log2FC,Gene 4170,-1.365
same,MDK log2FC,Gene 4192,-0.110
same,MDM2 log2FC,Gene 4193,-0.059
same,MECP2 log2FC,Gene 4204,-0.162
same,MEF2A log2FC,Gene 4205,-0.315
same,MEF2C log2FC,Gene 4208,0.262
same,MEF2D log2FC,Gene 4209,-0.705
same,MAP3K5 log2FC,Gene 4217,-0.666
same,MEN1 log2FC,Gene 4221,-0.273
same,KITLG log2FC,Gene 4254,-0.228
same,MGMT log2FC,Gene 4255,-0.305
same,MIF log2FC,Gene 4282,0.242
same,MLH1 log2FC,Gene 4292,0.538
same,MAP3K9 log2FC,Gene 4293,-0.899
same,MAP3K10 log2FC,Gene 4294,0.297
same,MAP3K11 log2FC,Gene 4296,-0.949
same,MMP9 log2FC,Gene 4318,-0.727
same,MNAT1 log2FC,Gene 4331,0.729
same,MNT log2FC,Gene 4335,1.624
same,MPO log2FC,Gene 4353,0.046
same,CITED1 log2FC,Gene 4435,-0.078
same,MSH2 log2FC,Gene 4436,0.939
same,MSX1 log2FC,Gene 4487,-0.324
same,MUC1 log2FC,Gene 4582,-0.901
same,MUC2 log2FC,Gene 4583,-0.262
same,MUC5AC log2FC,Gene 4586,-0.379
same,MUSK log2FC,Gene 4593,-0.344
same,MX1 log2FC,Gene 4599,0.147
same,MYC log2FC,Gene 4609,0.554
same,MYD88 log2FC,Gene 4615,-0.689
same,GADD45B log2FC,Gene 4616,0.642
same,NBN log2FC,Gene 4683,0.839
same,NDUFS1 log2FC,Gene 4719,0.459
same,NF1 log2FC,Gene 4763,0.412
same,NFATC4 log2FC,Gene 4776,0.112
same,NFE2L2 log2FC,Gene 4780,0.727
same,NFKB1 log2FC,Gene 4790,-0.122
same,NFKBIA log2FC,Gene 4792,-0.281
same,NGFR log2FC,Gene 4804,-0.063
same,NKX3-1 log2FC,Gene 4824,-0.261
same,NME1 log2FC,Gene 4830,0.168
same,NME2 log2FC,Gene 4831,0.216
same,NME3 log2FC,Gene 4832,-0.214
same,NMT1 log2FC,Gene 4836,-0.046
same,NODAL log2FC,Gene 4838,-0.110
same,NOS3 log2FC,Gene 4846,-0.420
same,NOTCH2 log2FC,Gene 4853,0.166
same,NPM1 log2FC,Gene 4869,0.586
same,NPTX1 log2FC,Gene 4884,-0.350
same,NPY5R log2FC,Gene 4889,-0.068
same,SLC11A2 log2FC,Gene 4891,0.211
same,NRAS log2FC,Gene 4893,-0.204
same,NTF3 log2FC,Gene 4908,-1.251
same,NTRK2 log2FC,Gene 4915,-0.357
same,NR4A2 log2FC,Gene 4929,0.761
same,OCLN log2FC,Gene 4950,0.639
same,OPA1 log2FC,Gene 4976,0.527
same,TNFRSF11B log2FC,Gene 4982,0.707
same,OSM log2FC,Gene 5008,0.056
same,P2RX1 log2FC,Gene 5023,-0.067
same,P2RX4 log2FC,Gene 5025,0.236
same,P2RX7 log2FC,Gene 5027,-0.509
same,SERPINB2 log2FC,Gene 5055,-0.075
same,PAK1 log2FC,Gene 5058,0.117
same,PAK2 log2FC,Gene 5062,-0.170
same,PARK2 log2FC,Gene 5071,-0.177
same,PAWR log2FC,Gene 5074,0.858
same,PAX3 log2FC,Gene 5077,-0.277
same,PAX4 log2FC,Gene 5078,-0.139
same,PAX7 log2FC,Gene 5081,-0.260
same,PCNT log2FC,Gene 5116,0.317
same,PDCD1 log2FC,Gene 5133,-0.432
same,PDCD2 log2FC,Gene 5134,-0.150
same,PDE1A log2FC,Gene 5136,-0.227
same,PDK1 log2FC,Gene 5163,0.562
same,PDK2 log2FC,Gene 5164,1.064
same,PDK4 log2FC,Gene 5166,0.792
same,PDPK1 log2FC,Gene 5170,0.541
same,PHB log2FC,Gene 5245,-0.244
same,SERPINB9 log2FC,Gene 5272,-0.261
same,SERPINB10 log2FC,Gene 5273,0.731
same,PIK3CA log2FC,Gene 5290,0.795
same,PIM1 log2FC,Gene 5292,1.131
same,PIK3R1 log2FC,Gene 5295,0.328
same,PLAGL1 log2FC,Gene 5325,0.310
same,PLAGL2 log2FC,Gene 5326,-1.493
same,PLK1 log2FC,Gene 5347,-0.287
same,PLSCR1 log2FC,Gene 5359,0.433
same,PMAIP1 log2FC,Gene 5366,-1.093
